Measured values taken from ChEMBL document CHEMBL1201862, “PubChem BioAssay data set” (2004).
Calls of active or inactive are those of the source.

Columns and labels:
[1] = inhibitors of firefly luciferase expression or activity, dose response, H4 neuroglioma cells, luminescence (AID 1990); type: functional, cell-based
[2] = luciferase reporter signal reduction – luminescence, H4-C neuroglioblastoma cells, dose response (AID 2458); type: functional, cell-based;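 note: H4 neuroglioblastoma cells stably carrying a luciferase reporter gene fusion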
[3] = cells; type: functional, cell-based
[4] = Luminescence Cell-Based Dose Response HTS to Identify Inhibitors of 5'UTR Stem-Loop Driven Prion Protein mRNA Translation in H4 Neuroglioblastoma Cells. [Related pubchem assays: 1827 (Project Summary), 1813 (Primary HTS)]; type: functional
[5] = inhibitors of SNCA 5'UTR-driven reporter translation, confirmation, H4 neuroglioma cells, luminescence (AID 1988); type: functional, cell-based
[6] = inhibitors of SNCA 5'UTR-driven translation, confirmation, luminescence, H4 neuroglioblastoma cells, dose confirmation (AID 2454); type: functional, cell-based;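 note: H4 neuroglioblastoma cells carrying an alpha-synuclein 5'UTR luciferase reporter; potency for inhibition of the luciferase signal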
[7] = target: Eukaryotic translation initiation factor 4H (Homo sapiens, UniProt Q15056); experiment: eIF4H inhibition in translation initiation, SAR follow-up (AID 435011); type: functional
[8] = cytotoxicity in HEK-293T cells, dose response, cytotoxicity control for TCR NF-kB inhibitor project, luminescence, T-cell screen hits (AID 489026); type: functional, cell-based;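 note: cells exposed to compound about 14 hours before the viability readout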
[9] = target: Intestinal-type alkaline phosphatase (Homo sapiens, UniProt P09923); experiment: Dose Response confirmation of uHTS hits from a small molecule inhibitors of human intestinal alkaline phosphatase via a luminescent assay. [Related pubchem assays (depositor defined):AID2544, AID2574]; type: functional
Chain of Intestinal-type alkaline phosphatase (P09923 whole entry): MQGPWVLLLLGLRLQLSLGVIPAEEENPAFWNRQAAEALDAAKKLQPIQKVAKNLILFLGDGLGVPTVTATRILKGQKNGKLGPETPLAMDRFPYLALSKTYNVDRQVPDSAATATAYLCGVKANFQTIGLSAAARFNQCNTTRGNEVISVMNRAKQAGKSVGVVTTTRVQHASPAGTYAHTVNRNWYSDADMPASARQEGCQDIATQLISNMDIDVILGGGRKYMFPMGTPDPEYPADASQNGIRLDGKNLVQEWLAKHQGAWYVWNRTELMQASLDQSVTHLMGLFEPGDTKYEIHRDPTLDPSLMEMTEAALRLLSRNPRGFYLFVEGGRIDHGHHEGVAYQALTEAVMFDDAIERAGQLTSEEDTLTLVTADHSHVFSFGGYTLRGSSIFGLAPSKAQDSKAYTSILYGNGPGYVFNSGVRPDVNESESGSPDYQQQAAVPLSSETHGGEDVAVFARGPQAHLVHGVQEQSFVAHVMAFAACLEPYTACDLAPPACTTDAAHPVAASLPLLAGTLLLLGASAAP

[10] = test system: H9c2; experiment: cells; type: functional, cell-based; conditions: Rattus norvegicus, H9c2, Myocardium;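 note: confirmatory concentration-response retest of ultra-high-throughput screening hits for modulation of myocardial damage; cell death induced by hydrogen peroxide oxidative stress; compound pretreatment for 60 min then peroxide exposure for 2 h; potency is for protecting the cells against peroxide damage rather than for killing them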
[11] = target: T1, Mannose-6-phosphate isomerase (Homo sapiens, UniProt P34949); experiment: PMI enzyme inhibitors, confirmation, biochemical, fluorescence intensity (AID 1535)
T1 sequence (P34949 whole entry): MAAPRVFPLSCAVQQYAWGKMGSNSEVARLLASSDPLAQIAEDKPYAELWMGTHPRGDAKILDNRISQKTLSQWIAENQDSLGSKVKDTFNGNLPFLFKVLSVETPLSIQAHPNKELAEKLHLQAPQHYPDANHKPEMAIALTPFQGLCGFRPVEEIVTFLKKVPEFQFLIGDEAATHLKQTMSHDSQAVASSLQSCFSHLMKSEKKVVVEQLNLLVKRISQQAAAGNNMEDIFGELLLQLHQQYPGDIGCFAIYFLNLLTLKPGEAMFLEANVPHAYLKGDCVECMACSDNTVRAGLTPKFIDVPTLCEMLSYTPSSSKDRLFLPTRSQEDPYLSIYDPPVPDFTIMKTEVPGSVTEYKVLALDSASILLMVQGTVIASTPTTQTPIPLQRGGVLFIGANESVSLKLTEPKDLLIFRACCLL

[12] = target: Phosphomannomutase 2 (Homo sapiens, UniProt O15305); experiment: Counter screen SAR assay for PMM2 inhibitors via a fluorescence intensity assay. [Related pubchem assays (depositor defined):AID1545, AID1574]
Chain of Phosphomannomutase 2 (O15305 whole entry): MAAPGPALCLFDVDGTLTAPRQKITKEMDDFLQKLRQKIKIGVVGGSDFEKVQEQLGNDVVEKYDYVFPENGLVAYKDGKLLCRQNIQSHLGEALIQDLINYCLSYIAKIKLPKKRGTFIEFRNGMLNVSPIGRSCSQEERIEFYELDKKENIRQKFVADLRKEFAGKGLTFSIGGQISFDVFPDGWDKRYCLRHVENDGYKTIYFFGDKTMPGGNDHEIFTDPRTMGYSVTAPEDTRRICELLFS

[13] = target: Hexokinase (Trypanosoma brucei, UniProt Q38C41); experiment: Confirmation assay for inhibitors of Trypanosoma brucei hexokinase 1-Analogue-first series. [Related pubchem assays (depositor defined):AID1430, AID1632, AID2516, AID2560, AID2579, AID2600, AID449725, AID492951]; type: functional
Chain of Hexokinase (Q38C41 whole entry): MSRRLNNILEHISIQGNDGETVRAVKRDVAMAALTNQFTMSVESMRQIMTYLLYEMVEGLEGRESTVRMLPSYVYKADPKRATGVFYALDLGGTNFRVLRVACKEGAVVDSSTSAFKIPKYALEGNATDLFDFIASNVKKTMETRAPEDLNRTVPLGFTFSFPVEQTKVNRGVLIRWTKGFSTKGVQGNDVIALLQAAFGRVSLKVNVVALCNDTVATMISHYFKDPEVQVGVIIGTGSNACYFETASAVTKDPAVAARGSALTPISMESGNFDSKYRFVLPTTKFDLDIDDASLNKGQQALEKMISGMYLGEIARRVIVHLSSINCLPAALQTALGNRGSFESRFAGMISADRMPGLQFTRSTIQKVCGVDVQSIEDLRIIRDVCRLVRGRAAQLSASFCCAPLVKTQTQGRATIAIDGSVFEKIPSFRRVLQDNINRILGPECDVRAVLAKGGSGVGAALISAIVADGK

[14] = target: Glucose-6-phosphate 1-dehydrogenase (Homo sapiens, UniProt P11413); experiment: human G6PD enzyme inhibitors, dose response, selectivity assay for P. falciparum G6PD inhibitor project, biochemical, fluorescence (AID 504792); type: functional
Chain of Glucose-6-phosphate 1-dehydrogenase (P11413 whole entry, the tested form may be a part): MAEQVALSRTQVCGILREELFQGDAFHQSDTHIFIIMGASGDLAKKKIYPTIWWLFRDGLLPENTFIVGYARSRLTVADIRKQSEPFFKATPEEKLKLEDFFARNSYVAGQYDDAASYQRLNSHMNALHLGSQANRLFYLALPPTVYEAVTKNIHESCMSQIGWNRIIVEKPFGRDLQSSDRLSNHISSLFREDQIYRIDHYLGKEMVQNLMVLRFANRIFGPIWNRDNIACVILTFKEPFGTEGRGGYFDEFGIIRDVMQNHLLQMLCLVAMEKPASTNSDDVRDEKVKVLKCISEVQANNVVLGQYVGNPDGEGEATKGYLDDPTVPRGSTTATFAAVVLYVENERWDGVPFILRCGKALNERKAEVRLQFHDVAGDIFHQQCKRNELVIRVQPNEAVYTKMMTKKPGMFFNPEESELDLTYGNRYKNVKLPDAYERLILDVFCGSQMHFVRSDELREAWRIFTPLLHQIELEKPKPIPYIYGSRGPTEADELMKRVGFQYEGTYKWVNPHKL

[15] = Fluorescence-based cell-based high throughput dose response assay for inhibitors of the interaction of nucleotide-binding oligomerization domain containing 2 (NOD2) and the receptor-interacting serine-threonine kinase 2 (RIPK2).; type: functional; conditions: Homo sapiens
[16] = target: Voltage-dependent T-type calcium channel subunit alpha-1H (Homo sapiens, UniProt O95180); experiment: Cav3.2 T-type channel inhibitors, cell-based, synthetic library set 1, calcium flux (AID 493022); type: functional
Chain of Voltage-dependent T-type calcium channel subunit alpha-1H (O95180 whole entry): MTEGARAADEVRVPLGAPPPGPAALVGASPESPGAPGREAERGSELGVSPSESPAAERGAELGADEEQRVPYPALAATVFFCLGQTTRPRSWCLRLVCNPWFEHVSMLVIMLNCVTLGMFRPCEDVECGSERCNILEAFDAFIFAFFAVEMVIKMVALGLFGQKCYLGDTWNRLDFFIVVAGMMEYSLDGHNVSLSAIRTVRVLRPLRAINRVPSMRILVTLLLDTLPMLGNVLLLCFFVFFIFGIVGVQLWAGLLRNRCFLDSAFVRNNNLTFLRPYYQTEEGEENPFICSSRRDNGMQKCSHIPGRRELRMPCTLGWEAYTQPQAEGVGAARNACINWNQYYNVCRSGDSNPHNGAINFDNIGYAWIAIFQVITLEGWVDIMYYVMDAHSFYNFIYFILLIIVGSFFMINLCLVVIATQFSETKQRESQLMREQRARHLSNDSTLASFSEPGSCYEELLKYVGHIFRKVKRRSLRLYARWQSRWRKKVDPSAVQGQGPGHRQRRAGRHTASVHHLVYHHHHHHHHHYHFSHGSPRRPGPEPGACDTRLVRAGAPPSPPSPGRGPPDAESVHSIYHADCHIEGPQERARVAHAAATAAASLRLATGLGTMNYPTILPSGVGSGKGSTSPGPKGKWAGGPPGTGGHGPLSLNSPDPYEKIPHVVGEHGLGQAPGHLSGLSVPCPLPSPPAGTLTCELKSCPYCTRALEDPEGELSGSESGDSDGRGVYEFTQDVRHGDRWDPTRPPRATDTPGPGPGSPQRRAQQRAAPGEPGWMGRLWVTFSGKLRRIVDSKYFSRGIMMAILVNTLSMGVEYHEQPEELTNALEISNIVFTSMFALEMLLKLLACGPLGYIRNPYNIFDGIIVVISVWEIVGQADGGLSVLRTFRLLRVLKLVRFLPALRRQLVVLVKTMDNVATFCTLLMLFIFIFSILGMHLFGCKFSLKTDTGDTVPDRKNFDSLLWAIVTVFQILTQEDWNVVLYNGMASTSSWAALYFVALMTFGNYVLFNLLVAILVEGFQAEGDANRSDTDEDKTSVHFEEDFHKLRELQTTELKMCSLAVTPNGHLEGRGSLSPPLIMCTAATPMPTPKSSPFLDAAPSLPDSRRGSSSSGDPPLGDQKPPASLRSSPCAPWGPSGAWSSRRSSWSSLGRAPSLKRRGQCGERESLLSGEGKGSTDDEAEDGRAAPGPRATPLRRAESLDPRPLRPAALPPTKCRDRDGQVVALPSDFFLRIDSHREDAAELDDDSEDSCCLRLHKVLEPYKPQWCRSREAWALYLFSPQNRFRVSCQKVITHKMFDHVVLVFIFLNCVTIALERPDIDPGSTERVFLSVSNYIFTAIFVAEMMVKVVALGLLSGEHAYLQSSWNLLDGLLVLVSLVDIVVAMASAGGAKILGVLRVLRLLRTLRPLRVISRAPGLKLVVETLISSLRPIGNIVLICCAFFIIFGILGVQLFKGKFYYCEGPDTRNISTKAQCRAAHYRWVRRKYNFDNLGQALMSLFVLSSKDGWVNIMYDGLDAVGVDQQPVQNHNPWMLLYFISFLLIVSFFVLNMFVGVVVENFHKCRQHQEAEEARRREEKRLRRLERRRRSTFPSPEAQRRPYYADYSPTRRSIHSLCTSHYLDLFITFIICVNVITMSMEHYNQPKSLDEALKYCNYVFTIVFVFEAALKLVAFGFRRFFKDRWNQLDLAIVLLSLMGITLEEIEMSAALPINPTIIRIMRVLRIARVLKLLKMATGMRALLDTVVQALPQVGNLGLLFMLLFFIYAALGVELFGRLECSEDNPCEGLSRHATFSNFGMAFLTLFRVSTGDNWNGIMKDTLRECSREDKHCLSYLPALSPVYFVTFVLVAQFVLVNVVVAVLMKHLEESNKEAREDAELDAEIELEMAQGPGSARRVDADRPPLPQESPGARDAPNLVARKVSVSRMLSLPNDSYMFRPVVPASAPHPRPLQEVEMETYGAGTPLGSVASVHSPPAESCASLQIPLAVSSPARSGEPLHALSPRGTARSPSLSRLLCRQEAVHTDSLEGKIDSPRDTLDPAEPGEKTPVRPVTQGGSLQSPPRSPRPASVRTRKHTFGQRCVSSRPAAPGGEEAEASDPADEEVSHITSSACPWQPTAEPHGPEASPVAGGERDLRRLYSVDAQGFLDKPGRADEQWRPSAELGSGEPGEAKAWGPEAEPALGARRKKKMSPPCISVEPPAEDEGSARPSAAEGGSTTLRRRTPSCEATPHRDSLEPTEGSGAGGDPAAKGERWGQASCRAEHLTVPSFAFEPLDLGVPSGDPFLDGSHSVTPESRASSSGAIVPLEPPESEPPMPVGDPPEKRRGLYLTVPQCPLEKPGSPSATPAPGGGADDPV

For `Cc1ccc(N2C(=O)c3cccc4c(N)ccc(c34)C2=O)c2cccnc12`, the EC50 [1] was < 0.1 µM (active), the EC50 [2] was 0.111 µM (active) and the EC50 [3] was 0.101 µM (active). The EC50 [4] was < 0.1 µM (active), the EC50 [5] was < 0.1 µM (active) and the EC50 [6] was 0.124 µM (active). For the same compound, the IC50 [7] was > 100 µM (inactive) and the IC50 [8] was > 80 µM (inactive).
For `CC(=O)CCc1ccc(Oc2nc(-c3cccnc3)nc3ccccc23)cc1`, the IC50 [9] was > 100 µM (inactive) and the IC50 [10] was > 79 µM (inactive).
With `Clc1nss/c1=N\C1CCC1` the IC50 [11] was 15.6 µM (active) and the IC50 [12] was 76.3 µM (active).
For `O=C(Cn1sc2ccccc2c1=O)Nc1ccc(Br)cc1`, the IC50 [13] was > 25 µM (inactive), the IC50 [14] was 24.2 µM (inactive) and the IC50 [15] was 10.2 µM (inactive).
In the case of `O=C(COc1ccc(F)cc1Cl)Nc1nnc(-c2ccc3c(c2)CCCC3)o1`, the EC50 [16] is reported as 10 µM (active).
